Measurements taken from PubChem BioAssay (NCI).
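Assay format: 96-well plates, 48-hour exposure. At the GI50, growth is halved. At the TGI there is no net growth.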

Assays:
Assay in all cases: NCI tumour cell line growth inhibition, 48 h
[1] = system: CAKI-1 renal
[2] = system: CCRF-CEM leukemia
[3] = system: HCT-116 colon
[4] = system: HOP-62 NSCLC
[5] = system: NCI-H23 lung
[6] = system: RXF 393 renal
[7] = system: SF-539 CNS
[8] = system: SK-MEL-28 melanoma
[9] = system: SNB-19 CNS
[10] = system: BT-549 breast

SMILES	TGI [1] [µM]	TGI [2] [µM]	TGI [3] [µM]	TGI [4] [µM]	TGI [5] [µM]	TGI [6] [µM]	TGI [7] [µM]	TGI [8] [µM]	TGI [9] [µM]	GI50 [10] [µM]	TGI [10] [µM]	GI50 [1] [µM]	GI50 [2] [µM]	GI50 [5] [µM]	GI50 [6] [µM]	GI50 [9] [µM]	GI50 [3] [µM]	GI50 [4] [µM]	GI50 [7] [µM]	GI50 [8] [µM]
CCCCCCCCCC(=O)OCC1OC(n2cc(F)c(=O)[nH]c2=O)C(N)C(OC(=O)CCCCCCCCC)C1O (stereo not drawn)	> 100	50.4	32.1	> 100	36	31.9	33.7	30.4	33.6											
CCN(CC)CCOc1cc2c(C(=O)OC)c(C)oc2cc1C(C)=O	31.2	7.59			27.7	41			32.2	7.84	22.8	14.2	2.92	11.8	17.9	15.8				
Clc1ccc2nc(CCSCCc3nc4ccc(Cl)cc4[nH]3)[nH]c2c1	20.2	41.6	19.3	34.1	31.3	38.6	32.7													
O=C(O)/C(Cl)=C(\Cl)C(=O)Nc1ccccc1	> 100	> 100	> 100	> 100	> 100	> 100	> 100	> 100	> 100											
Nc1nc(N)c(-c2ccc(Cl)cc2)c(CCC(=O)Nc2cccc(C(F)(F)F)c2)n1	> 100	> 100	> 100	> 100	> 100	> 100	> 100	> 100	> 100											
COc1ccc2c(c1)[n+]([O-])c(-c1nc3ccccc3s1)c(N)[n+]2[O-]	> 100		> 100	> 100	> 100		> 100	> 100	> 100											
CC12CC3CC(C)(C1)CC(N=[N+]=[N-])(C3)C2	> 100	> 100	> 100	> 100	> 100		> 100	> 100	> 100											
COC(=O)C1C(=O)O[C@@H](c2ccc(OC)cc2OC)C1C(=O)OC (stereo partly drawn)	> 100	> 100	> 100	> 100	> 100	> 100	> 100	> 100	> 100											
CN=S(=O)(C[C@]1(O)CC2OC1C1OC(C)(C)OC21)c1ccccc1 (stereo partly drawn)	> 100	> 100	> 100	> 100	> 100	> 100	> 100	> 100	> 100											
COc1ccc2c(c1)Cc1c-2c(NN)nc2ccccc12	> 100		75.7	> 100		> 100	> 100	> 100	> 100	50.4	> 100	39.8			30.5	31.3	24.4	56.6	36.3	60.5
CCN(CC)c1ccc2c(c1)N=C1N=CC=CN1C2(c1ccc(N(C)C)cc1)c1ccc(N(C)C)cc1	25.2	23.5	11.8	24.3	20.2	23.2	28.6	26	24											
COc1cc(-c2nc3ccccc3s2)ccc1OCc1nc2n(n1)S(=O)(=O)c1ccccc1N2C	> 100	> 100	> 100	> 100	> 100		> 100	> 100	> 100	> 100	> 100	> 100	> 100	> 100		> 100	> 100	> 100	> 100	> 100
O=C(C=Nc1ccccc1C(=O)[O-])c1cccs1.O=C(C=Nc1ccccc1C(=O)[O-])c1cccs1.[Cu+2]	> 100	> 10	> 100	> 100	> 100			> 100	> 100											
CCCCCCCCCCCC(=O)OCC1OC(n2cc(F)c(=O)[nH]c2=O)C(N)C(O)C1O (stereo not drawn)	> 100	> 100	> 100	> 100	> 100	> 100	> 100	> 100	> 100											
C[C@]12CCC(=O)C=C1CC[C@@H]1[C@@H]2CC[C@]2(C)C(=O)/C(=C/c3cccc(OCCN4CCOCC4)c3)C[C@@H]12	48.3	28.6	13.4	29	20.6	20.9	23.7	29.8	> 100			11.9	4.49	3.79	5.62	15.8	3.14	12.6	10.5	11.9
COC1CC2CCC(C)[C@](O)(O2)C(=O)C(=O)N2CCCCC2C(=O)OC(C(C)CC2CCC(O)C(OC)C2)CC(=O)C(C)C=C(C)C(OC(=O)CN(C)C)C(OC)C(=O)C(C)CC(C)/C=C/C=C/C=C\1C (stereo partly drawn)		5.42	22.2	19.3	24.3	15.5	12.7	20.7	15.9											
O=C(CC(=O)C(F)(F)F)c1csc2ccccc12		> 100	> 100	81.1	> 100		> 100	> 100	> 100											
COC(=O)C1=CC2OC13CC1CCC3(C2=O)C1(C)C (stereo not drawn)	7.37	14.6	23.5	48.1	32.1	25.8	27.3		52.3											
CCC[CH2][Sn]([CH2]CCC)([S]C1=NCCS1)[S]C1=NCCS1	0.51	0.226	1.91	3.55	0.67	0.301	0.449	0.353	1.12			0.0928	0.0231	0.17	0.0846	0.3	0.615	2.1	0.164	0.146
COc1cnc2c(c1)C(=O)c1c-2n(CCCN2CCN(C)CC2)c(=O)c2cc(Cl)ccc12	18.4	20.1	> 100	36	24.6	13.3	5.31	5.04	78.9			2.97	0.527	6.27	1.9	13.8	0.982	0.95	2.15	2.3

SMILES	TGI [1] [µM]	TGI [2] [µM]	TGI [3] [µM]	TGI [4] [µM]	TGI [5] [µM]	TGI [6] [µM]	TGI [7] [µM]	TGI [8] [µM]	TGI [9] [µM]	GI50 [10] [µM]	TGI [10] [µM]	GI50 [1] [µM]	GI50 [2] [µM]	GI50 [5] [µM]	GI50 [6] [µM]	GI50 [9] [µM]	GI50 [3] [µM]	GI50 [4] [µM]	GI50 [7] [µM]	GI50 [8] [µM]
Cc1cc(C)nc(SC2=C(Nc3cccc(Cl)c3)C(=O)N(Cc3ccccc3)C2=O)n1	> 170	> 170	> 170	> 170	> 170		> 170	> 170	> 170	> 170	> 170	> 170	> 170	> 170		> 170	> 170	42.3	> 170	> 170
Cc1cc(C)n(-c2c(O)ccc(O)c2-n2nc(C)cc2C)n1	> 100	> 100		> 100	> 100	> 100	> 100	> 100	> 100											
CC(=O)Nc1ccc(/C=C/C(=O)c2sc(C(N)=S)nc2C)cc1	> 100	> 100		> 100	> 100	> 100	> 100	> 100												
Cn1c2cccc3nnc4cccc(c4c32)n1C	> 100	> 100	> 100			> 100	> 100	> 100	> 100											
COC(=O)C1=CC2OC1(C)C1(CC1)C2=O (stereo not drawn)	33.5	23.2	27.8	> 100	49.7	28.9	32.1		> 100											
O=C1c2ccccc2C(=O)c2nc(-c3ccccc3)c(-c3ccccc3)nc21	> 100	> 100	> 100	> 100	> 100	> 100	> 100	> 100	> 100											
COC(=O)C(=O)C(C(=O)C(=O)Nc1cc([N+](=O)[O-])ccc1[N+](=O)[O-])c1nc2ccc(C(=O)c3ccccc3)cc2[nH]c1=O (stereo not drawn)	> 100	83.4	> 100	> 100	70.4		> 100		> 100											
CCC(=C(c1ccc(OCc2ccccc2)cc1)c1ccc(OCc2ccccc2)cc1)c1ccc(OC)cc1	> 100	> 100	> 100	> 100	> 100	> 100	> 100	> 100	> 100											
Cc1ccc(S(=O)(=O)N/N=C(\C(=O)Nc2cccc([N+](=O)[O-])c2)c2nc3ccc([N+](=O)[O-])cc3[nH]c2=O)cc1	> 100	> 100	> 100	> 100	> 100	> 100	> 100	> 100	> 100											
CC(C)=CCC/C(C)=C/CC/C(=C/COP(=O)(OCc1ccc([N+](=O)[O-])o1)N(C)CCCCCl)C(C)(C)C (stereo not drawn)	22	27.4	11.8	3.86	34.2	26.5	10.6	37.5	33.6			5.78	0.0571	12.6	7.84	15.8	2.04	1.83	4.25	17.1
COc1ccc(OC)c2cc(C3(C)SCCCS3)ccc12	> 100	> 100	> 100	> 100	> 100	77	> 100	> 100	> 100											
CCOC(=O)c1cc2ncccc2c2ccccc12	> 100	> 100	> 100	> 100	> 100	> 100		> 100	> 100		> 100									
CC1C(=O)N(C)C2(CO)C(=O)O[C@H](C)C12O (stereo partly drawn)	> 100		> 100	> 100	> 100	> 100	> 100	> 100	> 100											
Cc1ccc2[nH]c(=O)c(C(C#N)c3ccccc3)nc2c1 (stereo not drawn)	76.9	> 100	> 100	> 100	> 100	78.8	> 100	> 100	89.2											
CCOC(=O)c1c(Cl)c2c(n1Cc1cc(OC)cc(OC)c1)-c1oncc1CCC2	> 60.7	> 100	> 100	> 33.3	> 100	6.03		> 100	> 100	19.6	> 100	0.29	0.295	0.607	0.201	0.629	0.432	0.466		0.554
CCOC(=O)C1=C(C)N(NC(=O)c2ccccc2)C2(O)CCCC12C(=O)OCC (stereo not drawn)	> 100		> 100	> 100		> 100	> 100	> 100	> 100											
CC1C2=CC=C(O2)C(C)(C)C2=CC=C(O2)C(C)(C)C2=CC=C(O2)C(C)(C)C2=CC=C1O2	> 100	> 100	> 100	> 100	> 100	> 100	> 100	> 100	> 100											
Cc1ccc(C2=NO[C@@H]3C(=O)N(c4ccc(Cc5ccc(N6C(=O)[C@H]7C(c8ccc(C)cc8)=NO[C@H]7C6=O)cc5)cc4)C(=O)[C@H]23)cc1	> 100	> 100		> 100	> 100	> 100	> 100	> 100												
O=C(NCC#CCO)C(F)(F)F	> 100		> 100	> 100	> 100	> 100	> 100	> 100	> 100											
O=C(CC1(O)C(=O)Nc2c(Cl)cc(Cl)cc21)c1ccc2ccccc2c1 (stereo not drawn)	19.8	39	13.4	20.8	22.3	20.9	21	24.3	25.4											
